Measurements from the CheMixHub viscosity set.
± gives the uncertainty stated by the source.

Assay: xn = mol fraction of the nth substance listed

CS(C)=O + OCCO
viscosity [mPa·s]
Details | 298.15 K | 303.15 K | 308.15 K | 313.15 K | 318.15 K | 323.15 K
100 kPa, x1 = 0.105 | 12.96 ± 0.53 | 10.76 ± 0.44 | 8.98 ± 0.37 | 7.61 ± 0.31 | 6.51 ± 0.26 | 5.63 ± 0.23
100 kPa, x1 = 0.1987 | 10.61 ± 0.43 | 8.91 ± 0.36 | 7.45 ± 0.3 | 6.39 ± 0.26 | 5.54 ± 0.23 | 4.82 ± 0.2
100 kPa, x1 = 0.2971 | 8.58 ± 0.35 | 7.31 ± 0.3 | 6.14 ± 0.25 | 5.32 ± 0.22 | 4.51 ± 0.18 | 4.09 ± 0.17
100 kPa, x1 = 0.3911 | 6.94 ± 0.28 | 5.97 ± 0.24 | 5.09 ± 0.21 | 4.45 ± 0.18 | 3.86 ± 0.16 | 3.48 ± 0.14
100 kPa, x1 = 0.5099 | 5.28 ± 0.21 | 4.59 ± 0.19 | 4.03 ± 0.16 | 3.56 ± 0.14 | 3.02 ± 0.12 | 2.84 ± 0.12
100 kPa, x1 = 0.5932 | 4.45 ± 0.18 | 3.93 ± 0.16 | 3.46 ± 0.14 | 3.07 ± 0.12 | 2.72 ± 0.11 | 2.48 ± 0.1
100 kPa, x1 = 0.702 | 3.68 ± 0.15 | 3.26 ± 0.13 | 2.91 ± 0.12 | 2.61 ± 0.11 | 2.45 ± 0.1 | 2.13 ± 0.09
100 kPa, x1 = 0.7931 | 3.21 ± 0.13 | 2.86 ± 0.12 | 2.58 ± 0.11 | 2.32 ± 0.09 | 2.24 ± 0.09 | 1.91 ± 0.08
100 kPa, x1 = 0.9003 | 2.74 ± 0.11 | 2.46 ± 0.1 | 2.21 ± 0.09 | 2 ± 0.08 | 1.92 ± 0.08 | 1.67 ± 0.07
101 kPa, x1 = 0.0799 | – | – | 10.2 ± 0.2 | – | – | –
101 kPa, x1 = 0.206 | – | – | 9.506 ± 0.19 | – | – | –
101 kPa, x1 = 0.3426 | – | – | 8.715 ± 0.17 | – | – | –
101 kPa, x1 = 0.4387 | – | – | 8.143 ± 0.16 | – | – | –
101 kPa, x1 = 0.5397 | – | – | 7.399 ± 0.15 | – | – | –
101 kPa, x1 = 0.6459 | – | – | 6.235 ± 0.13 | – | – | –
101 kPa, x1 = 0.7517 | – | – | 4.953 ± 0.1 | – | – | –
101 kPa, x1 = 0.8456 | – | – | 3.731 ± 0.078 | – | – | –
101 kPa, x1 = 0.9271 | – | – | 2.599 ± 0.055 | – | – | –
101 kPa, x2 = 0.0621 | 2.42 ± 0.1 | 2.19 ± 0.09 | 1.98 ± 0.08 | 1.8 ± 0.07 | 1.63 ± 0.07 | 1.5 ± 0.06
101 kPa, x2 = 0.1227 | 3.05 ± 0.13 | 2.66 ± 0.11 | 2.43 ± 0.1 | 2.24 ± 0.09 | 2.02 ± 0.08 | 1.84 ± 0.08
101 kPa, x2 = 0.1819 | 4.26 ± 0.18 | 3.66 ± 0.15 | 3.21 ± 0.13 | 2.8 ± 0.12 | 2.51 ± 0.1 | 2.27 ± 0.09
101 kPa, x2 = 0.2394 | 5.61 ± 0.23 | 4.72 ± 0.19 | 4.02 ± 0.17 | 3.49 ± 0.14 | 3.06 ± 0.13 | 2.73 ± 0.11
101 kPa, x2 = 0.2958 | 7.14 ± 0.29 | 5.91 ± 0.24 | 4.88 ± 0.2 | 4.19 ± 0.17 | 3.56 ± 0.15 | 3.14 ± 0.13
101 kPa, x2 = 0.3504 | 8.45 ± 0.35 | 7.01 ± 0.29 | 5.72 ± 0.24 | 4.83 ± 0.2 | 4.12 ± 0.17 | –
101 kPa, x2 = 0.404 | 9.69 ± 0.4 | 7.96 ± 0.33 | 6.43 ± 0.26 | 5.48 ± 0.23 | 4.63 ± 0.19 | –
101 kPa, x2 = 0.4562 | 10.8 ± 0.4 | 8.81 ± 0.36 | 7.13 ± 0.29 | 6.01 ± 0.25 | 5.11 ± 0.21 | –
101 kPa, x2 = 0.5076 | 11.7 ± 0.5 | 9.54 ± 0.39 | 7.73 ± 0.32 | 6.52 ± 0.27 | 5.52 ± 0.23 | –
101 kPa, x2 = 0.5568 | 12.6 ± 0.5 | 10.2 ± 0.4 | 8.27 ± 0.34 | 6.95 ± 0.28 | 5.88 ± 0.24 | –
101 kPa, x2 = 0.6061 | 13.3 ± 0.5 | 10.7 ± 0.4 | 8.72 ± 0.36 | 7.33 ± 0.3 | 6.2 ± 0.25 | –
101 kPa, x2 = 0.6537 | 14 ± 0.6 | 11.2 ± 0.5 | 9.12 ± 0.37 | 7.65 ± 0.31 | 6.49 ± 0.27 | –
101 kPa, x2 = 0.7004 | 14.6 ± 0.6 | 11.6 ± 0.5 | 9.44 ± 0.38 | 7.94 ± 0.32 | 6.72 ± 0.27 | –
101 kPa, x2 = 0.7461 | 15.1 ± 0.6 | 12 ± 0.5 | 9.75 ± 0.4 | 8.22 ± 0.33 | 6.93 ± 0.28 | –
101 kPa, x2 = 0.7906 | 15.5 ± 0.6 | 12.4 ± 0.5 | 9.99 ± 0.41 | 8.48 ± 0.35 | 7.15 ± 0.29 | –
101 kPa, x2 = 0.8342 | 16 ± 0.7 | 12.8 ± 0.5 | 10.2 ± 0.4 | 8.71 ± 0.35 | 7.33 ± 0.3 | –
101 kPa, x2 = 0.8769 | 16.5 ± 0.7 | 13.1 ± 0.5 | 10.5 ± 0.4 | 8.95 ± 0.36 | 7.53 ± 0.31 | –
101 kPa, x2 = 0.9189 | 16.9 ± 0.7 | 13.4 ± 0.5 | 10.9 ± 0.4 | 9.2 ± 0.37 | 7.71 ± 0.31 | –
101 kPa, x2 = 0.9599 | 17.3 ± 0.7 | 13.7 ± 0.6 | 11.1 ± 0.5 | 9.41 ± 0.38 | 7.9 ± 0.32 | –
